Reference: patent publication US6335339B1, “Triazine antiviral compounds” (Scriptgen Pharmaceuticals, Inc., priority 1998, dated 2002)
Where two headings read alike, the source gives them in different places.

How the values were obtained:
HBV = assay: antiviral assay in 2.2.15 cells producing HBV (virion DNA dot blot); format: cell-based, Hepatitis B virus
Description: Several cell lines and cell culture assays have been developed to identify potential therapeutics effective against chronic HBV infection. One of these cell lines, 2.2.15, has been used in a standardized assay that has repeatedly proven to be an accurate model of chronic cellular HBV replication and a predictive model of antiviral response for chronic hepadnaviral infection in vivo. 2.2.15 cells contain copies of the complete HBV genome integrated into the cell's genome, and 2.2.15 cells are not susceptible to infection by HBV. (Sells, M. A. et al., J. Virol. 62 (8): 2836-2844 (1988)). These cells express HBV genes producing complete HBV particles capable of infecting chimpanzees (Acs, G. et al., Proc. Natl. Acad. Sci. USA 84 (13): 4641-4644 (1987)). Briefly, 2.2.15 cells are cultured and pretreated with a test compound for about 9 days, at which point the media are harvested and subjected to dot-blot hybridization to detect HBV virion DNA.
The antiviral activity of the compounds of the present invention is measured by the methods described in Korba and Gering, Antiviral Res. 19: 55-70 (1992).
This assay format is well suited to the screening of test compounds for potential antiviral activity. The assay provides a threshold assessment of antiviral activity by measuring (i) the levels of HBV virion release from the cells and (ii) cytotoxicity. Two rows of cells were used for each compound, and 4 rows for the assay controls (two for untreated, and two for positive antiviral control, e.g., 3TC). After incubating in the presence of test compound for 9 days, the media were harvested, transferred to 96-well U-bottom plates, and centrifuged. The supernatants were transferred to tubes for dot blot hybridization analysis of HBV virion DNA. The medium was aspirated off of the toxicity plates and discarded. Toxicity plates were then incubated with neutral red dye (MTT can also be used if preferred), washed with DPBS, developed with an acetic acid-ethanol solution, and assayed in a plate reader.
1. 2.2.15 cells were seeded into 96-well, flat bottom tissue culture plates as described above. Duplicate plates were used for the antiviral treatments for each test compound (up to 8 compounds per pair of plates); after three to four days, cells were confluent and medium was yellow in color; the medium was removed and replaced with 100 μl RP2 24 hours before the beginning of drug treatment.
i) For each compound, a total of 4 concentrations were examined; this required 9 sets of 4 sterile, 1.1 ml minitubes (36 tubes per compound). Into the first tube of each set, sufficient compound was aliquoted to make up 700 μl (for 10-fold dilution series) or 980 μl (for 3.3-fold dilution series) of the highest test concentration; the other tubes were left empty.
i) For a 10-fold dilution series: to the first (compound containing) tube was added 700 μl (175 μl×4). 630 μl (210 μl×3) RP2 culture medium was added to the remaining 3 tubes. The first tube was mixed by pipeting up and down with a pipetman (a multichannel pipetman permits the simultaneous processing of multiple compounds). 70 μl of test compound-containing medium were serially transferred from the first tube to the other 3 tubes, taking care to thoroughly mix each tube before transferring medium;
b) 100 μl of each dilution of every compound was added to each of 6 wells (3 wells per plate) using the configuration listed below as an example. The lowest concentration was added first, and the same tips were used to add the higher concentrations. The untreated cells received 100 μl RP2 per well (untreated cells have to be carried on only one pair of the antiviral assay plates).
c) Treatments were repeated daily for 9 days. For the last day of treatment, and additional 200 μl RP2 were added to each well of the antiviral assay plates after the wells are treated with the test compounds (a total of 300 μl medium per well).
6. […]

2.2.15 cells = assay: neutral red dye uptake cytotoxicity; format: cell-based; details: 9 days treatment, read-out: 50% Cell Death CC50
Method: Further, the antiviral effect of any compound must be measured against its toxicity. Cytotoxicity is measured by the neutral red uptake method using the same cells used for antiviral activity.
2b. Compounds were prepared for toxicity treatment as follows: For each compound, a total of 4 concentrations were examined. This required 9 sets of 4 sterile, 1.1 ml minitubes (36 tubes per compound). Into the first tube of each set, sufficient compound was aliquoted to make up 465 μl of the highest test concentration. The other tubes were left empty. The tubes were covered with the rack lids, and stored at −20° C. or at an appropriate temperature. Tubes for the last day of treatment for toxicity testing contain the same amount of compound as used the previous days (not 3xas for the antiviral assays).
3b. The cytotoxicity of test compounds was analyzed in a 3.3-fold dilution series as follows. […] (155 μl×3) of RP2 were added to the first tube (containing the aliquot of compound) and 310 μL (155 μl×2) RP2 to each of the 3 remaining tubes. 150 μl of test compound-containing medium were serially transferred from the first tube to the other 3 tubes.
5. A single plate was used for the toxicity treatments for each test compound (up to 7 compounds per plates since the top row were reserved for untreated cells on every toxicity plate). To initiate the treatments, the culture medium was removed, and 100 μl of each dilution of every compound were added to each of 3 wells using a configuration similar to that shown above for the antiviral treatments. The untreated cells received 100 μl RP2 per well. Treatment was repeated daily for 9 days.
The antiviral effect of any compound was evaluated relative to its toxicity. Cells were seeded and treated following the guidelines above, after which a neutral red dye uptake assay was performed to assess toxicity as described below. Other assays of cytotoxicity (e.g., MTT) can be substituted for the procedure described below. Note that this procedure assesses toxicity under culture and treatment conditions which are identical to those used for the antiviral analyses, thereby permitting a determination as to whether the reduction in virus production due to a specific antiviral effect or due to a cytotoxic effect on the host cell. Since the cultures, by necessity, are at confluence, the cytotoxic effects of the test compounds will probably be reduced relative to the cytotoxic effects that would be expected for actively dividing cells.
1. Cultures were treated with test compounds on the designated toxicity plates as described above.
2. The culture medium was carefully removed 24 hours following the 9th day of treatment. The monolayer was fully removed in the top left three wells (row A, col. 1-3). These wells were used as “blanks” for the plate reader.
3. 100 μl DPBS (containing 0.01% neutral red dye) were added to each well, including the empty wells, and Incubated in the tissue culture incubator for 30 minutes.
4. The dye was removed carefully and gently, using a multichannel pipetman since the monolayers can become fragile after incubation with neutral red dye. 200 μl DPBS were added to all the wells taking care not to displace the monolayers. The DPBS was removed and 100 μl 50% EtOH/1% glacial acetic acid (in H2O) were added to each well. The plates were mixed for 15 minutes on an orbital platform shaker (120-150 RPM) to allow for full extraction of the dye from the cells.
5. Optical absorbance at 510 nm was read in an ELISA type plate reader, using the 3 empty wells to set the background. An average absorbance value was calculated for the 9 untreated cultures on a plate, and the absorbance of dye for the treated cultures on the same plate was expressed as a percentage of that value. This procedure was repeated for each individual plate. […]

[1] = extra-cellular virus reduced by 50%, 2.2.15 cells, 9 days treatment, read-out: Antiviral EC50

SMILES	EC90 (HBV; drug alone, Example 3, read-out: 90% viral reduction (EC90))	EC50 (HBV; [1])	CC50 (2.2.15 cells)	EC50 (HBV; Hepatitis B virus, 216 h, read-out: Antiviral EC50 (μM))	EC50 (HBV; Hepatitis B virus, 216 h, extra-cellular virus reduced by 50%, 2.2.15 cells, 9 days treatment, read-out: Antiviral EC50)
CCCCN(CCCC)c1nc(NN=Cc2ccc([N+](=O)[O-])cc2)nc(Nc2ccc([N+](=O)[O-])cc2)n1 [Compound 5]	1.3 µM	0.411 µM	307 µM	–	–
Cc1[nH]c2ccccc2c1C=NNc1nc(Nc2ccccc2)nc(Nc2ccc([N+](=O)[O-])cc2)n1 [Compound 6]	–	0.3 µM	29 µM	–	–
Cc1ccc(Nc2nc(NN=Cc3ccccc3)nc(Nc3ccccc3)n2)c(C)c1 [Compound 7]	–	33 µM	29 µM	–	–
CCCCN(CCCC)c1nc(N/N=C/c2cc(I)cc(I)c2O)nc(Nc2ccc([N+](=O)[O-])cc2)n1 [Compound 8]	–	> 100 µM	196 µM	–	–
Cc1ccc(Nc2nc(NN=Cc3ccc(O)cc3O)nc(Nc3ccc([N+](=O)[O-])cc3)n2)cc1C [Compound 9]	–	0.474 µM	175 µM	–	–
Cc1ccccc1Nc1nc(NN=Cc2ccc(I)cc2)nc(Nc2ccc([N+](=O)[O-])cc2)n1 [Compound 10]	–	> 100 µM	> 300 µM	–	–
CCCCN(CCCC)c1nc(NN=Cc2ccc3c(c2)OCO3)nc(Nc2ccc([N+](=O)[O-])cc2)n1 [Compound 11]	–	3.9 µM	27 µM	–	–
Cc1ccc(Nc2nc(NN=Cc3ccccc3O)nc(Nc3ccc([N+](=O)[O-])cc3)n2)cc1C [Compound 12]	–	0.759 µM	77 µM	–	–
CCN(CC)c1nc(NN=Cc2ccc([N+](=O)[O-])cc2)nc(Nc2ccccc2)n1 [Compound 13]	–	8.4 µM	> 300 µM	–	–
COc1c(Br)cc(Br)cc1C=NNc1nc(Nc2ccccc2)nc(N2CCCCC2)n1 [Compound 14]	–	> 100 µM	> 100 µM	–	–
Cc1ccc(C=NNc2nc(Nc3ccc([N+](=O)[O-])cc3)nc(Nc3ccccc3C)n2)cc1 [Compound 15]	–	0.5 µM	0.6 µM	–	–
CCCCN(CCCC)c1nc(NN=Cc2ccc(Cl)cc2)nc(Nc2ccc([N+](=O)[O-])cc2)n1 [Compound 16]	–	15 µM	304 µM	–	–
CC(C=NNc1nc(Nc2ccc([N+](=O)[O-])cc2)nc(Nc2ccc(C)c(C)c2)n1)=Cc1ccccc1 [Compound 19]	–	> 100 µM	> 300 µM	–	–
COc1ccc(Nc2nc(NN=Cc3ccc(OC)cc3OC)nc(Nc3ccccc3)n2)cc1 [Compound 20]	–	4.1 µM	7.1 µM	–	–
FC(F)(F)c1cccc(Nc2nc(Nc3ccccc3)nc(N3CCOCC3)n2)c1 [Compound 21]	–	5.6 µM	5.6 µM	–	–
COc1ccc(Nc2nc(NN=Cc3ccc(Cl)cc3)nc(Nc3ccccc3)n2)cc1 [Compound 22]	–	> 100 µM	47 µM	–	–
CCCCN(CCCC)c1nc(NN=Cc2ccc(OCC)c(O)c2)nc(Nc2ccc([N+](=O)[O-])cc2)n1 [Compound 23]	–	40 µM	145 µM	–	–

SMILES	EC90 (HBV; drug alone, Example 3, read-out: 90% viral reduction (EC90))	EC50 (HBV; [1])	CC50 (2.2.15 cells)	EC50 (HBV; Hepatitis B virus, 216 h, read-out: Antiviral EC50 (μM))	EC50 (HBV; Hepatitis B virus, 216 h, extra-cellular virus reduced by 50%, 2.2.15 cells, 9 days treatment, read-out: Antiviral EC50)
O=[N+]([O-])c1ccc(Nc2nc(NCc3ccccc3)nc(NN=Cc3ccccc3)n2)cc1 [Compound 24]	–	18 µM	75 µM	–	–
Cc1ccc(Nc2nc(NN=Cc3ccccc3)nc(Nc3ccccc3)n2)cc1 [Compound 25]	–	1 µM	105 µM	–	–
CCN(CC)CCNc1ccc2c3c(cccc13)C(=O)N(Nc1nc(NCc3ccccc3)nc(N(CC)CC)n1)C2=O [Compound 27]	–	> 100 µM	> 300 µM	–	–
COc1ccc(Br)cc1/C=N/Nc1nc(Nc2cccc([N+](=O)[O-])c2)nc(N2CCOCC2)n1 [Compound 28]	–	> 100 µM	33 µM	–	–
Cc1ccccc1Nc1nc(NN=Cc2ccc3c(c2)OCO3)nc(Nc2ccc([N+](=O)[O-])cc2)n1 [Compound 29]	–	1.1 µM	15 µM	–	–
Cc1ccc(Nc2nc(NN=Cc3cccc(I)c3)nc(Nc3ccccc3)n2)cc1 [Compound 30]	–	54 µM	230 µM	–	–
Oc1ccc(I)cc1C=NNc1nc(NCc2ccccc2)nc(Nc2ccccc2)n1 [Compound 33]	–	> 100 µM	50 µM	–	–
Oc1c(Br)cc(Cl)cc1/C=N/Nc1nc(Nc2cccc(C(F)(F)F)c2)nc(N2CCOCC2)n1 [Compound 34]	–	66 µM	41 µM	–	–
CCCCN(CCCC)c1nc(NN=Cc2cccc(Cl)c2)nc(Nc2ccc([N+](=O)[O-])cc2)n1 [Compound 35]	–	2.3 µM	3.9 µM	–	–
Cc1ccc(Nc2nc(NN=Cc3ccc(I)cc3)nc(Nc3ccccc3)n2)c(C)c1 [Compound 113]	–	> 100 µM	> 300 µM	–	–
O=[N+]([O-])c1ccc(Nc2nc(NN=Cc3ccc(Br)cc3)nc(N3CCCCCC3)n2)cc1 [Compound 117]	–	4.2 µM	> 300 µM	–	–
FC(F)(F)c1cccc(Nc2nc(NN=Cc3ccc(Cl)cc3)nc(N3CCOCC3)n2)c1 [Compound 120]	–	> 100 µM	45 µM	–	–
C(=Cc1ccccc1)C=NNc1nc(Nc2ccccc2)nc(Nc2ccccc2)n1 [Compound 125]	–	3.9 µM	265 µM	–	–
CCN(CC)c1nc(NCc2ccccc2)nc(N/N=C/c2ccccc2O)n1 [Compound 155, 2-hydroxybenzaldehyde N-[4-(benzylamino)-6-(diethylamino)-1,3,5-triazin-2-yl]hydrazone]	–	–	–	0.063 µM	0.001 µM
COc1ccc(Nc2nc(NN=Cc3ccc(O)cc3O)nc(Nc3ccccc3)n2)cc1 [Compound 158]	–	42 µM	112 µM	–	–
Cc1ccc(Nc2nc(NN=Cc3cc(I)ccc3O)nc(Nc3ccccc3)n2)c(C)c1 [Compound 159]	–	0.498 µM	101 µM	–	–
